In patent US20230117324A1, “OXAZINE MONOACYLGLYCEROL LIPASE (MAGL) INHIBITORS” (Hoffmann-La Roche Inc., priority 2018, published 2023) one finds IC50 data, which are given here for 19 compounds.

Molecules are shown by their SMILES.

The assay concerns the target T1, MAGL (Homo sapiens, UniProt Q99685).
T1 sequence (Q99685 1-303): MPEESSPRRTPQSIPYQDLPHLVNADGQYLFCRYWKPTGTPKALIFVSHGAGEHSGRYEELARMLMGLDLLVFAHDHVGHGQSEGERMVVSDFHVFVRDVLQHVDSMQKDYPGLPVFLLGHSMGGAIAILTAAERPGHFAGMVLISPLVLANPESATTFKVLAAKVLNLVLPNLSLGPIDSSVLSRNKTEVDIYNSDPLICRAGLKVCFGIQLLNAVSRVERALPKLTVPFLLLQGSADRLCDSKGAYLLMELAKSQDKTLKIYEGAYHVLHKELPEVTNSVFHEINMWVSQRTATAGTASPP
The experiment in a line: MAGL inhibition, 2-AG assay (hydrolysis of 2-arachidonoylglycerol, arachidonic acid by mass spectrometry). The class given is biochemical. The following applies: 2-AG assay (footnote [b]). In a few lines:
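Hydrolysis of 8 μM 2-arachidonoylglycerol by […] was run for 30 min at RT after a 15 min compound preincubation, in Tris/EDTA/Tween buffer. Test compounds spanned […]. The product was measured by online SPE-MS/MS (transitions 303.1→259.1 and 311.1→267.0), and activity was derived from the arachidonic acid/d8-arachidonic acid signal ratio.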
By IC50 is commonly meant the concentration that gives 50% inhibition. The low end stands for greater potency, the high end for weaker potency. As to `O=C1CO[C@H]2CCN(C(=O)N3CC(c4ccc(N5CCC(C(F)(F)F)C5)nc4)C3)C[C@H]2N1` (single isomer, unassigned) [Example 274, (4aR,8aS)-6-[3-[6-[3-(R or S)-(Trifluoromethyl)pyrrolidin-1-yl]-3-pyridyl]azetidine-1-carbonyl]-4,4a,5,7,8,8a-hexahydropyrido[4,3-b][1,4]oxazin-3-one], the concentration for half-maximal inhibition (IC50) worked out at 2 nM.

On to `N#Cc1cccc(Cl)c1-c1ccc(C2CN(C(=O)N3CC[C@@H]4OCC(=O)N[C@@H]4C3)C2)cc1` [Example 166, 2-[4-[1-[(4aR,8aS)-3-Oxo-4,4a,5,7,8,8a-hexahydropyrido[4,3-b][1,4]oxazine-6-carbonyl]azetidin-3-yl]phenyl]-3-chloro-benzonitrile], for which it took 0.1 nM to reach half-maximal inhibition (IC50).

As to `COc1ccc(C(c2ccc(F)cc2)C2CCN(C(=O)N3CC[C@@H]4OCC(=O)N[C@@H]4C3)CC2)cc1OC` (single isomer, unassigned) [Example 73, (4aR,8aS)-6-(4-((S or R)-(3,4-Dimethoxyphenyl)(4-fluorophenyl)methyl)piperidine-1-carbonyl)hexahydro-2H-pyrido[4,3-b][1,4]oxazin-3(4H)-one], the IC50 was 0.4 nM.

Compound `CC(Oc1ccc(C(F)(F)F)cc1F)C1CN(C(=O)N2CC[C@@H]3OCC(=O)N[C@@H]3C2)C1` (stereo partly drawn) [Example 91, (4aR,8aS)-6-(3-(1-(2-Fluoro-4-(trifluoromethyl)phenoxy)ethyl)azetidine-1-carbonyl)hexahydro-2H-pyrido[4,3-b][1,4]oxazin-3(4H)-one] had an IC50 of 15 nM.

`Cc1ccc(C(c2ccc(F)cc2)C2CCN(C(=O)N3CC[C@@H]4OCC(=O)N[C@@H]4C3)CC2)cc1` (single isomer, unassigned) [Example 72, (4aR,8aS)-6-(4-((R or S)-(4-Fluorophenyl)(p-tolyl)methyl)piperidine-1-carbonyl)hexahydro-2H-pyrido[4,3-b][1,4]oxazin-3(4H)-one] returned an IC50 of 0.1 nM.

Regarding `COc1cc(C2CN(C(=O)N3CC[C@@H]4OCC(=O)N[C@@H]4C3)C2)ccc1C` [Example 250, (4aR,8aS)-6-[3-(3-Methoxy-4-methyl-phenyl)azetidine-1-carbonyl]-4,4a,5,7,8,8a-hexahydropyrido[4,3-b][1,4]oxazin-3-one], inhibition was half-maximal at 106 nM (IC50).

In the case of `O=C1CO[C@H]2CCN(C(=O)N3CC(c4ccc(OC(F)(F)F)c(C(F)(F)F)c4)C3)C[C@H]2N1` [Example 243, (4aR,8aS)-6-(3-(4-(Trifluoromethoxy)-3-(trifluoromethyl)phenyl)azetidine-1-carbonyl)hexahydro-2H-pyrido[4,3-b][1,4]oxazin-3(4H)-one], the IC50 came to 10 nM.

In turn, `O=C1CO[C@H]2CCN(C(=O)N3CCC(C(OCC(F)(F)F)c4ccc(F)cc4)CC3)C[C@H]2N1` (single isomer, unassigned) [Example 58, (4aR,8aS)-6-(4-((S or R)-(4-Fluorophenyl)(2,2,2-trifluoroethoxy)methyl)piperidine-1-carbonyl)hexahydro-2H-pyrido[4,3-b][1,4]oxazin-3(4H)-one] showed an IC50 of 7 nM.

`O=C1CO[C@H]2CCN(C(=O)N3CC(c4ccc(C5(C(F)(F)F)CC5)cc4)C3)C[C@H]2N1` [Example 188, (4aR,8aS)-6-[3-[4-[1-(Trifluoromethyl)cyclopropyl]phenyl]azetidine-1-carbonyl]-4,4a,5,7,8,8a-hexahydropyrido[4,3-b][1,4]oxazin-3-one] registered an IC50 of 4 nM.

In turn, `CC(C)(C)Cc1ccc(C2CN(C(=O)N3CC[C@@H]4OCC(=O)N[C@@H]4C3)C2)cc1` [Example 261, (4aR,8aS)-6-[3-[4-(2,2-Dimethylpropyl)phenyl]azetidine-1-carbonyl]-4,4a,5,7,8,8a-hexahydropyrido[4,3-b][1,4]oxazin-3-one] displayed a concentration for half-maximal inhibition (IC50) of 0.07 nM.

In the case of `O=C1CO[C@H]2CCN(C(=O)N3CCC(c4cn(CCO)c5ccc(Cl)cc45)CC3)C[C@@H]2N1` [Example 269, (4aS,8aS)-6-[4-[5-Chloro-1-(2-hydroxyethyl)indol-3-yl]piperidine-1-carbonyl]-4,4a,5,7,8,8a-hexahydropyrido[4,3-b][1,4]oxazin-3-one], the IC50 was 530 nM.

As for `O=C1CO[C@H]2CCN(C(=O)N3CC(C(c4ccccc4)c4ccccc4)C3)C[C@H]2N1` [Example 86, (4aR,8aS)-6-(3-Benzhydrylazetidine-1-carbonyl)hexahydro-2H-pyrido[4,3-b][1,4]oxazin-3(4H)-one], half-maximal inhibition (IC50) required 155 nM.

Compound `O=C1CO[C@H]2CCN(C(=O)N3CC(c4ccc(N5CCCC5C(F)(F)F)nc4)C3)C[C@H]2N1` (stereo partly drawn) [Example 174, (4aR,8aS)-6-(3-(6-(2-(Trifluoromethyl)pyrrolidin-1-yl)pyridin-3-yl)azetidine-1-carbonyl)hexahydro-2H-pyrido[4,3-b][1,4]oxazin-3(4H)-one] registered an IC50 of 7 nM.

The compound `CC1CN(c2ccc(C3CN(C(=O)N4CC[C@@H]5OCC(=O)N[C@@H]5C4)C3)cc2Cl)C1` [Example 224, (4aR,8aS)-6-(3-(3-Chloro-4-(3-methylazetidin-1-yl)phenyl)azetidine-1-carbonyl)hexahydro-2H-pyrido[4,3-b][1,4]oxazin-3(4H)-one] registered an IC50 of 6 nM.

With `O=C1CO[C@H]2CCN(C(=O)N3CCN(C(c4ccc(F)cc4F)C(F)(F)F)CC3)C[C@H]2N1` (stereo partly drawn) [Example 53, (4aR,8aS)-6-(4-(1-(2,4-Difluorophenyl)-2,2,2-trifluoroethyl)piperazine-1-carbonyl)hexahydro-2H-pyrido[4,3-b][1,4]oxazin-3(4H)-one], the 50% inhibitory concentration (IC50) stood at 416 nM.

In turn, `Cn1ncc2c(C3CN(C(=O)N4CC[C@@H]5OCC(=O)N[C@@H]5C4)C3)cccc21` [Example 215, (4aR,8aS)-6-(3-(1-Methyl-1H-indazol-4-yl)azetidine-1-carbonyl)hexahydro-2H-pyrido[4,3-b][1,4]oxazin-3(4H)-one] had an IC50 of 550 nM.

For `O=C1CO[C@H]2CCN(C(=O)N3CCC(N4CCc5cc(Cl)ccc54)CC3)C[C@H]2N1` [Example 263, (4aR,8aS)-6-[4-(5-Chloroindolin-1-yl)piperidine-1-carbonyl]-4,4a,5,7,8,8a-hexahydropyrido[4,3-b][1,4]oxazin-3-one], the IC50 is 16 nM.

With `COc1ccc(C(c2ccccn2)C2CCN(C(=O)N3CC[C@@H]4OCC(=O)N[C@@H]4C3)CC2)cc1OC` (single isomer, unassigned) [Example 118, (4aR,8aS)-6-[4-[(R or S)-(3,4-dimethoxyphenyl)-(2-pyridyl)methyl]piperidine-1-carbonyl]-4,4a,5,7,8,8a-hexahydropyrido[4,3-b][1,4]oxazin-3-one], the concentration for half-maximal inhibition (IC50) came to 25 nM.

`COc1cccc(C(c2ccccc2)C2CCN(C(=O)N3CC[C@@H]4OCC(=O)N[C@@H]4C3)CC2)c1` (single isomer, unassigned) [Example 65, (4aR,8aS)-6-(4-((R or S)-(3-Methoxyphenyl)(phenyl)methyl)piperidine-1-carbonyl)hexahydro-2H-pyrido[4,3-b][1,4]oxazin-3(4H)-one] registered an IC50 of 0.2 nM.
